The values that follow come from ChEMBL document CHEMBL1131292, “Synthesis and pharmacology of a new AMPA-kainate receptor agonist with potent convulsant activity” (J Med Chem, 1998).

Assay [1] concerns the target Glutamate receptor ionotropic, kainate. As to the kind of experiment: Compound was evaluated for binding affinity at Ionotropic glutamate receptor kainate using [3H]- KAIN as radioligand. The class given is protein-complex assay.
Assay [2] concerns Mus musculus. As to the kind of experiment: In Vivo evaluation of the Compound administered through icv for the Clonic seizure presence along with […] in mice. (+/-95% confidence limits within parenthesis); nM per mouse. Format: functional.
In assay [3] the test system is Mus musculus. As to the kind of experiment: In Vivo evaluation of the Compound administered through icv for the tonicity in presence alone in mice. Format: functional.
In assay [4] the test system is Mus musculus. As to the kind of experiment: In Vivo evaluation of the Compound administered through icv for the Clonic seizure presence alone in mice. The class given is functional.
Assay [5] concerns Mus musculus. As to the kind of experiment: In Vivo evaluation of the Compound administered through icv for the Clonic seizure presence along with the antagonist GYKI 52466 in mice. Format: functional.
The target in a further assay is Glutamate NMDA receptor. As to the kind of experiment: Compound was evaluated for binding affinity at N-methyl-D-aspartate glutamate receptor using [3H]CPP as radioligand. Format: protein-complex assay.
Assay [6] can be described thus: Potency ratio (the ratio between the CD50 value of the drug in the presence of antagonist versus its CD50 value) for compound in presence of CPP; range 2.9-3.4. Format: functional.
Assay [7] in a line: Potency ratio (the ratio between the CD50 value of the drug in the presence of antagonist versus its CD50 value) for compound in presence of GYKI 52466; range 1.4-2.1. The class given is functional.
The nature of assay [8]: Potency ratio (the ratio between the CD50 value of the drug in the presence of antagonist versus its CD50 value) for compound in presence of CPP compound in presence of NBQX; range 1.1-1.3. Format: functional.
Assay [9] addresses Glutamate receptor ionotropic, AMPA (Rattus norvegicus, UniProt P19490+P19491+P19492+P19493).
Description: Compound was evaluated for binding affinity at Ionotropic glutamate receptor AMPA using [3H]AMPA as radioligand
The test system of assay [10] is Mus musculus. The experiment in a line: In Vivo evaluation of the Compound administered through icv for tonicity in presence along with […] in mice. The class given is functional.
For assay [11], the system named is Mus musculus. As to the kind of experiment: In Vivo evaluation of the Compound administered through icv for tonicity in presence along with the antagonist NBQX in mice. Format: functional.
Assay [12] concerns Mus musculus. As to the kind of experiment: In Vivo evaluation of the Compound administered through icv for the Clonic seizure presence along with the antagonist NBQX in mice. Format: functional.
Assay [13] deals with Mus musculus. The experiment in a line: In Vivo evaluation of the Compound administered through icv for the Clonic seizure presence along with […] in mice. The class given is functional.
The subject of assay [14] is Mus musculus. The experiment in a line: In Vivo evaluation of the Compound administered through icv for the Clonic seizure presence along with the antagonist GYKI 52466 in mice. The class given is functional.
The test system of assay [15] is Mus musculus. As to the kind of experiment: In Vivo evaluation of the Compound administered through icv for the tonicity in presence along with the antagonist GYKI 52466 in mice. The class given is functional.
Assay [16] has as its system Mus musculus. As to the kind of experiment: In Vivo evaluation of the Compound administered through icv for the Clonic seizure presence of the compound along with the antagonist NBQX in mice. The class given is functional.
Assay [17] deals with Mus musculus. The experiment in a line: In Vivo evaluation of the Compound administered through icv for the for tonicity in presence along with the antagonist GYKI 52466 in mice. The class given is functional.
The subject of assay [18] is Mus musculus. As to the kind of experiment: In Vivo evaluation of the Compound administered through icv for the for tonicity in presence along with […] in mice. The class given is functional.
Assay [19] deals with Mus musculus. The experiment in a line: In Vivo evaluation of the Compound administered through icv for the for tonicity in presence of the compound along with the antagonist NBQX in mice. Format: functional.
In assay [20] the test system is Mus musculus. The experiment in a line: In Vivo evaluation of the Compound administered through icv for tonicity in presence alone in mice. The class given is functional.
Assay [21] deals with Mus musculus. The experiment in a line: In Vivo evaluation of the Compound administered through icv for tonicity in presence along with the antagonist GYKI 52466 in mice. Format: functional.
In assay [22] the test system is Mus musculus. The experiment in a line: In Vivo evaluation of the Compound administered through icv for tonicity in presence of the compound along with the antagonist NBQX in mice. Format: functional.
Assay [23] deals with Mus musculus. As to the kind of experiment: In Vivo evaluation of the Compound administered through icv for the Clonic seizure presence of the compound along with the antagonist NBQX in mice. The class given is functional.
The test system of assay [24] is Mus musculus. As to the kind of experiment: In Vivo evaluation of the Compound administered through icv for tonicity in presence alone in mice. Format: functional.

The structures appear in SMILES notation.

For the molecule `O=C(O)C1=NO[C@H]2[C@@H]1CN[C@@H]2C(=O)O`, the IC50 (usually the concentration at which inhibition is half-maximal) is 48 µM in assay [1], 23 µM on Glutamate NMDA receptor and 24.7 µM in [9]. Also, the CD50 with Mus musculus [2] came out at 24.82 nM; in the assay on Mus musculus [3], 39.9 nM; in the assay with Mus musculus [4], 8.48 nmol/mouse; with Mus musculus [5], 17.5 nmol/mouse. The Ratio in assay [6] came out at 2.9; in assay [7], 1.4; in [8], 1.1.
For the molecule `O=C(O)C1=NO[C@H]2CN[C@H](C(=O)O)[C@@H]12`, the results for the IC50 (in assay [1]; at Glutamate NMDA receptor; in assay [9]) were 0.48 µM, > 100 µM and 1.3 µM, respectively. Besides, the CD50 worked out at 0.19 nmol in the assay on Mus musculus [10]; 0.99 nM with Mus musculus [11]; 0.43 nM with Mus musculus [12]; 0.039 nmol/mouse with Mus musculus [13]; 0.027 nmol/mouse in the assay with Mus musculus [4]; 0.5 nM in the assay on Mus musculus [14]. The molecule also had a CD50 with Mus musculus [15] of 1.26 nM.
Take `Cc1onc(O)c1C[C@H](N)C(=O)O` [(S)-AMPA]: the CD50 in the assay on Mus musculus [13] worked out at 2.69 nmol/mouse; in the assay on Mus musculus [16] it was 6.7 nmol/mouse; with Mus musculus [17] it was 16.1 nmol; in the assay with Mus musculus [18], 3.18 nM; in the assay on Mus musculus [19] it was 15.7 nmol; in the assay on Mus musculus [20], 2.9 nmol. In addition, the CD50 in the assay with Mus musculus [4] came to 1.76 nmol/mouse; in the assay with Mus musculus [5], 7.61 nmol/mouse.
With `C=C(C)[C@H]1CN[C@H](C(=O)O)[C@H]1CC(=O)O` [KAINIC ACID], the CD50 worked out at 0.232 nmol/mouse in the assay with Mus musculus [21]; 0.071 nmol/mouse in the assay with Mus musculus [10]; 0.468 nmol/mouse with Mus musculus [22]; 0.024 nmol/mouse in the assay on Mus musculus [13]; 0.094 nmol with Mus musculus [23]; 0.032 nmol/mouse in the assay on Mus musculus [24]. In addition, the CD50 in the assay with Mus musculus [4] was 0.015 nmol/mouse; in the assay with Mus musculus [5], 0.071 nmol/mouse. The IC50 at Glutamate NMDA receptor is > 100 µM.
